According to PMC9065678, “BI 1015550 is a PDE4B Inhibitor and a Clinical Drug Candidate for the Oral Treatment of Idiopathic Pulmonary Fibrosis” (Frontiers in Pharmacology, 2022):

Tests used:
IPF-LF cells = test: bFGF plus IL-1β-induced proliferation of IPF lung fibroblasts (bromodeoxyuridine assay); type: cell-based; conditions: Homo sapiens, Fibroblast, read-out: Inhibition of proliferation
Experimental: (§1) Fibroblasts from donors with IPF (IPF-LF) (Asterand, Detroit, MI, United States) were grown in fibroblast basal medium (CC-3131, Lonza Walkersville, Inc., Walkersville, MD, United States) supplemented with FGM-2 SingleQuot Kit Supplements and Growth Factors (CC-4126, Lonza). Cells were grown in a humidified incubator at 37°C and 5% CO2. All assays were performed at passage 7 or 8. For assay set-up, cells were seeded in fibroblast growth medium plus supplements in assay-relevant densities. For TGF-β-stimulated assays, cells were seeded at 4,500 cells per well in 96-well plates. Proliferation assays were performed in 96-well plates at an initial seeding cell density on day 0 of 2,000 cells per well. After 24-h, the cell culture medium was changed to starvation medium (fibroblast basal medium without supplements). After a 24-h starvation period, cells were pre-incubated for 30 min with different concentrations of BI 1015550 plus/minus different concentrations of nintedanib and/or 1 nmol/L PGE2 and stimulated with the assay-relevant stimulus for the indicated time in the presence of the compound.
IPF-LF cells were stimulated with bFGF (20 ng/mL) plus IL-1β (30 pg/mL). After 72 h of stimulation, 10-times concentrated bromodeoxyuridine was added and the cells were incubated for another 18 h (final concentration bromodeoxyuridine 10 μmol/L). Cell proliferation was assessed by bromodeoxyuridine assay (Roche, Mannheim, Germany) according to the instruction manual.

α-SMA protein expression = α-SMA protein expression of TGF-β-stimulated IPF lung fibroblasts (Western blot replacement assay); type: cell-based, human; conditions: alone, up to the highest concentration of 100 nmol/L
Experimental: as §1
For determination of α-SMA protein expression, IPF-LF cells were stimulated with TGF-β (4 ng/mL) for 48 h. Lysates were assayed in a Western blot replacement assay (MSD). In short, lysates were pipetted onto high binding plates (MSD) and were sequentially incubated with a mouse anti-human α-SMA antibody (Sigma Aldrich) and an anti-mouse sulfo-tag antibody (MSD). For analysis, an MSD sector imager was used.

[1] = tested on: LPS-induced neutrophil influx into the BALF; test: LPS-induced neutrophil influx into the BALF of Suncus murinus; type: in vivo; conditions: Neutrophil, oral, 30 min before nebulized LPS, read-out: ED50 LPS-induced BALF neutrophils
Description: (§2) Compared with other animal species used to study emesis induction by PDE4 inhibitors, like ferrets, dogs, minipigs, or monkeys, Suncus murinus allows the testing of a sufficient number of animals to provide a high statistical power. […] Male Suncus murinus (weight 50–55 g) from Boehringer Ingelheim (Biberach an der Riss, Germany) or male Wistar rats (200–250 g, Charles River), eight animals per group, were used. […] For this purpose, animals in the positive control and treatment groups were put into a circular Plexiglas chamber with 16 pie-like compartments for one animal each, and were consecutively exposed to nebulized LPS for 30 min. The LPS solution used for nebulization contained 1 mg/mL LPS in phosphate-buffered saline (PBS). Nebulization was performed with the commercially available PARI Master® nebulizer with a PARI Master® LL adapter (Pari GmbH, Starnberg, Germany). 4 h after LPS exposure, the animals were anesthetized and euthanized by cervical dislocation. After sacrifice, the trachea was cannulated and bronchoalveolar lavage was performed by instilling and re-aspirating two-times 1 mL (Suncus murinus) or 5 mL (rat) lavage buffer (PBS +2% bovine serum albumin). BALF volumes were recorded manually. Determination of neutrophil numbers in BALF was performed using a blood hemacytometer (Sysmex XT-1800i, Kobe, Japan).

[2] = tested on: LPS-induced lung neutrophil influx; test: LPS-induced lung neutrophil influx in male Wistar rats; type: in vivo, rat; conditions: Rattus norvegicus, Neutrophil, oral, data not shown
Description: as §2

Suncus murinus = test: Determination of emesis in male Suncus murinus; type: in vivo
Experimental: All animals (50–55 g) were dosed orally by gavage immediately before transfer to whole-body plethysmography boxes. The volume of application was set to 10 mL/kg body weight. For assessment of the emetic events, animals were placed in the whole-body plethysmography boxes without any access to feed or water for 3 h. The whole-body plethysmography system used to detect emetic events consisted of five major components: 1) plethysmography boxes for mice (Buxco®, PLY 3211-F, Data Sciences International, New Brighton, MN, United States), 2) a pressure transducer with an amplifier, 3) a bias flow regulator, 4) a PC-based system to receive and process the amplified signals, and 5) a PC-based data acquisition system (NOTOCORD-hem™, Instem, Stone, United Kingdom) to process signals, as well as in-house-developed software to detect and identify changes in breathing pattern. Retching and vomiting induced characteristic changes in the breathing pattern of animals and these were recorded by whole-body plethysmography and translated for NOTOCORD recording. A number of preset definitions (computer-based criteria) characteristic for emetic events were determined. Peaks that met the set internal computer-based criteria and exceeded the threshold of more than 600 mV were labeled as emetic events by the system on a standard basis.

PDE4D = molecular target: T1, PDE4D (Homo sapiens, UniProt Q08499); test: Recombinant PDE activity, scintillation proximity assay: PDE4D; type: biochemical; conditions: human recombinant active site fragment, substrate [3H]cAMP, means from n independent experiments; read-out: IC50 PDE4D2
T1 construct: PDE4D NG_027957, AA 79–438; made in house; host or cells: SF9 insect cells (baculovirus, Bac-To-Bac, pFastbac)
Experimental: (§3) For the preparation of human recombinant PDEs of interest, the Bac-To-Bac baculoviral expression system from Invitrogen (Carlsbad, CA, United States) was used according to the instruction manual. […] The plasmids were transformed into DH10Bac bacteria, SF9 insect cells were transfected with the bacmid DNA, and the resulting baculoviruses were stored and used for further rounds of infections. For protein production, SF9 cells were infected until a cytopathic effect was visible (after about 72 h), the SF9 cells were harvested and broken up by 3 freeze/thaw cycles, and by shearing 10 times through a 0.1 mm cannula using a syringe. […] The Phosphodiesterase Scintillation Proximity Assays (TRKQ7090 for [^3H]cAMP, GE Healthcare Europe GmbH, Chalfont St Giles, United Kingdom, and TRKQ7100 for [^3H]cGMP, Perkin Elmer, Waltham, MA, United States) were performed essentially according to the instruction manual. […] Assay solutions containing recombinant baculoviral-expressed PDE (to give an activity of 5.000–20.000 cpm corresponding to 5–20% of total activity added), 50 mmol/L Tris/HCl pH 7.5, 8.3 mmol/L MgCl2, 1.7 mmol/L EGTA, and 10 µL radiolabeled substrate (0.05 µCi in H2O) were incubated for 1 h at 30°C (final volume 100 μL).

PDE4B = molecular target: T2, PDE4B (Homo sapiens, UniProt Q07343); test: Recombinant PDE activity, scintillation proximity assay: PDE4B; type: biochemical; conditions: human recombinant active site fragment, substrate [3H]cAMP, means from n independent experiments; read-out: IC50 PDE4B2
T2 construct: PDE4B NG_029038: AA 152–484; made in house; host or cells: SF9 insect cells (baculovirus, Bac-To-Bac, pFastbac)
Experimental: as §3

PDE4C = molecular target: T3, PDE4C (Homo sapiens, UniProt Q08493); test: Recombinant PDE activity, scintillation proximity assay: PDE4C; type: biochemical; conditions: substrate [3H]cAMP, means from n independent experiments, read-out: IC50 PDE4C2
T3 construct: made in house; host or cells: SF9 insect cells (baculovirus, Bac-To-Bac, pFastbac)
Experimental: as §3

PDE4A = molecular target: T4, PDE4A (Homo sapiens, UniProt P27815); test: Recombinant PDE activity, scintillation proximity assay: PDE4A; type: biochemical; conditions: substrate [3H]cAMP, means from n independent experiments
T4 construct: PDE4A (NG_029594, AA 156–886); made in house; host or cells: SF9 insect cells (baculovirus, Bac-To-Bac, pFastbac)
Experimental: as §3

T4 sequence (P27815 156-886): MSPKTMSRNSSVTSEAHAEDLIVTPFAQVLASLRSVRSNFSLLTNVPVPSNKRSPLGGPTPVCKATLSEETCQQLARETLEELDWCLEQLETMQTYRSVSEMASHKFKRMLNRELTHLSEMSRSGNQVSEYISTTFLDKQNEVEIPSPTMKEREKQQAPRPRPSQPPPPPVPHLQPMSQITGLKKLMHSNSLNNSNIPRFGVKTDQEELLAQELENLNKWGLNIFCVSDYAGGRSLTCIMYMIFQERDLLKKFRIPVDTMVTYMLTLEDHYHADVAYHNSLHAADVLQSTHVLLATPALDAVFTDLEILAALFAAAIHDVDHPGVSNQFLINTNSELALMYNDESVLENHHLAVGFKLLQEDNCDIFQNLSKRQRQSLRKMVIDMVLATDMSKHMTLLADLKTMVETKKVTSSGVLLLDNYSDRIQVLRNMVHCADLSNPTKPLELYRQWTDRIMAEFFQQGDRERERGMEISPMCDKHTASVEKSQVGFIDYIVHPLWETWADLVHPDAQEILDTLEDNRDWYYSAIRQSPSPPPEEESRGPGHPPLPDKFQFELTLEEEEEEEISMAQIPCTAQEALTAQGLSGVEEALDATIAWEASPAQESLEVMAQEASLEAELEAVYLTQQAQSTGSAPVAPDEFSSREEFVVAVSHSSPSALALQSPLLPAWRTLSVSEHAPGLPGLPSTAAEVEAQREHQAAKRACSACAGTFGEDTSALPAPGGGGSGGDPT
T3 sequence (Q08493 107-712): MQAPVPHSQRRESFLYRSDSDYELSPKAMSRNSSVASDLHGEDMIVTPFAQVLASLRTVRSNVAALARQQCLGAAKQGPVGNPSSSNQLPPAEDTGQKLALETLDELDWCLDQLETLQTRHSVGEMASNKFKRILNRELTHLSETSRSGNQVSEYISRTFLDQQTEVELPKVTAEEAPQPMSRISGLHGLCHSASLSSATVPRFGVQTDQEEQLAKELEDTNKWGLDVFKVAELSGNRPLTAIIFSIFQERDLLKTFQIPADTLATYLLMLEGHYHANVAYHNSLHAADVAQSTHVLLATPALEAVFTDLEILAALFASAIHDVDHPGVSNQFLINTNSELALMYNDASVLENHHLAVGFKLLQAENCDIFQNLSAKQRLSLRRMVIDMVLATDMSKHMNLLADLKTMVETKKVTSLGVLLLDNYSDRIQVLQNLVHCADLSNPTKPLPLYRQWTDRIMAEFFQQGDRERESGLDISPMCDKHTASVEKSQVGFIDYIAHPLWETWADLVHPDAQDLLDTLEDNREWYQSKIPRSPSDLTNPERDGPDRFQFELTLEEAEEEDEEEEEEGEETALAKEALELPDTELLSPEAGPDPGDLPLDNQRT
T1 sequence (Q08499 381-740): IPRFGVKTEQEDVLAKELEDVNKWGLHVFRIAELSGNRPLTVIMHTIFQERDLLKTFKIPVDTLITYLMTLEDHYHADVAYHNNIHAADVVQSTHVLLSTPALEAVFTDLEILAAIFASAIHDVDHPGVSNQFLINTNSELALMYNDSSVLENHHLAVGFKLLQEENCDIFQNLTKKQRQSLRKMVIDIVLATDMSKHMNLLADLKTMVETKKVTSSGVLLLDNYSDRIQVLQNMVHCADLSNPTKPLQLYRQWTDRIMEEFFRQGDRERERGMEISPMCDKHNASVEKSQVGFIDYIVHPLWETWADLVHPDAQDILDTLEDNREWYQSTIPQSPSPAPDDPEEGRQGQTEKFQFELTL
T2 sequence (Q07343 324-656): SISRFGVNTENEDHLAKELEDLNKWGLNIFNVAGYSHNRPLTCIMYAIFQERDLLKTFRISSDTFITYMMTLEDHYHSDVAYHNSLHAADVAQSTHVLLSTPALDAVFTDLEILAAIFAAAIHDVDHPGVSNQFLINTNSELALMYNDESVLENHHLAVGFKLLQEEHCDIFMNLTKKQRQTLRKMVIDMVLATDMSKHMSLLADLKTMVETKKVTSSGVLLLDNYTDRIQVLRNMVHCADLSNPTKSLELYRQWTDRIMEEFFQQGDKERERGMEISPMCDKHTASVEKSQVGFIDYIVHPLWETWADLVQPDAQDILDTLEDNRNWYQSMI

With `COC(=O)c1ccc2c(c1)NC(=O)/C2=C(\Nc1ccc(N(C)C(=O)CN2CCN(C)CC2)cc1)c1ccccc1` [Nintedanib, nintedanib, reference compound] the inhibition at 0.1 µM (IPF-LF cells) was 15% and the “Inhibitory effect on α-SMA protein expression” value (α-SMA protein expression) was “no inhibitory effect”.
`O=C(Nc1c(Cl)cncc1Cl)c1ccc(OC(F)F)c(OCC2CC2)c1` [Roflumilast, roflumilast, reference compound] was tested, and the ED50 [1] was 1 mg/kg, the ED50 [2] was 1 mg/kg and the Animals showing emesis (Suncus murinus; 10 × ED50 oral (BI 1015550 6 mg/kg, roflumilast 10 mg/kg)) was 10/24. The “% of vomiting animals, emesis at 10 × ED50” value (Suncus murinus; oral (BI 1015550 6 mg/kg, roflumilast 10 mg/kg), 24 animals) was 42%.
Molecule `O=C(Nc1c(Cl)c[n+]([O-])cc1Cl)c1ccc(OC(F)F)c(OCC2CC2)c1` [Roflu-N-Ox, roflumilast N-oxide, reference compound] has an IC50 (PDE4D) of 1.4 nM, an IC50 (PDE4B) of 1.4 nM and an IC50 (PDE4C) of 15 nM. It also gave an IC50 (PDE4A) of 2.8 nM.
